Measured values: patent US8247211B2, “Glycopeptide antibiotics” (American Cyanamid Company, priority 2001, dated 2012)
In brackets after ≈: the same amount, converted by molar mass.

Key:
Experiment in all cases: In vitro antibacterial evaluation: minimum inhibitory concentration (MIC), broth dilution method
Format in all cases: cell-based
[1] = tested on: Enterococcus sp.
Summary of the method: (§1)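 Susceptibility determined by NCCLS-recommended broth dilution (M7-A2), Muller-Hinton II […]. Concentration span 64-0.06 μg/mL, inoculum 5×10^5 CFU/mL. Isolates include strains resistant to methicillin, penicillin and/or vancomycin.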

[2] = tested on: Escherichia coli
Summary of the method: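 Test strains, among them recent clinical isolates carrying methicillin, penicillin and/or vancomycin resistance, were inoculated at 5×10^5 CFU/mL. A broth dilution series spanning 64-0.06 μg/mL in Muller-Hinton II […] (NCCLS M7-A2) defined the MIC as the lowest growth-inhibiting concentration.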

[3] = tested on: Staphylococcus sp.; conditions: 18 hours at 35° C.
Summary of the method: as §1

[4] = tested on: Streptococcus sp.; conditions: 18 hours at 35° C.
Summary of the method: as §1

[5] = tested on: Escherichia coli; remark: listed apart in the source
[6] = Enterococcus faecalis (ATCC 29212)
[7] = Enterococcus faecalis (GC 4553)
[8] = Enterococcus faecalis (GC 4554)
[9] = Enterococcus faecalis (GC 6189)
[10] = broth dilution, 18 hours at 35° C., strain ATCC 29212
[11] = broth dilution, 18 hours at 35° C., strain GC 2242
[12] = broth dilution, 18 hours at 35° C., strain GC 2243
[13] = broth dilution, 18 hours at 35° C., strain GC 2691
[14] = broth dilution, 18 hours at 35° C., strain GC 3059
[15] = broth dilution, 18 hours at 35° C., strain GC 4552
[16] = broth dilution, 18 hours at 35° C., strain GC 4553
[17] = broth dilution, 18 hours at 35° C., strain GC 4554
[18] = broth dilution, 18 hours at 35° C., strain GC 4556
[19] = broth dilution, 18 hours at 35° C., strain GC 4557
[20] = broth dilution, 18 hours at 35° C., strain GC 4558
[21] = broth dilution, 18 hours at 35° C., strain GC 6189
[22] = Staphylococcus aureus (ATCC 29213)
[23] = Staphylococcus aureus (GC 1131)
[24] = Staphylococcus aureus (GC 3051)
[25] = Staphylococcus aureus (GC 3053)
[26] = Staphylococcus aureus (GC 4541)
[27] = Staphylococcus aureus (GC 4542)
[28] = Staphylococcus aureus (GC 4544)
[29] = Staphylococcus aureus (GC 4545)
[30] = broth dilution, strain ATCC 6301

CC(c1ccccc1)C1NC(=O)CNC(=O)C(CO)NC(=O)C(C(O)C2CNC(=N)N2C2OC(CO)C(O)C(O)C2O)NC(=O)C(C(O)C2CNC(=N)N2)NC(=O)C(Cc2ccc(OC3OC(CO)C(OC4OC(CO)C(O)C(O)C4O)C(O)C3O)cc2N)NC1=O (stereo not drawn) [Example 287, Cyclo[glycyl-β-methylphenylalanyl-2-amino-O-(4-O-hexopyranosylhexopyranosyl)tyrosyl-3-(2-iminoimidazolidin-4-yl)seryl-3-(3-hexopyranosyl-2-iminoimidazolidin-4-yl)serylseryl]]
MIC Enterococcus avium (GC 4558) ([1]; Enterococcus avium (GC 4558)): 64 µg/mL (≈ 48.8 µM)
MIC Enterococcus faecalis (ATCC 29212) [1, 6]: >64 µg/mL
MIC Enterococcus faecalis (GC 4553) [1, 7]: >64 µg/mL
MIC Enterococcus faecalis (GC 4554) [1, 8]: >64 µg/mL
MIC Enterococcus faecalis (GC 6189) [1, 9]: >64 µg/mL
MIC Enterococcus faecium (GC 2243) ([1]; Enterococcus faecium (GC 2243)): >64 µg/mL
MIC Enterococcus faecium (GC 4556) ([1]; Enterococcus faecium (GC 4556)): >64 µg/mL
MIC Enterococcus faecium (GC 4557) ([1]; Enterococcus faecium (GC 4557)): 64 µg/mL (≈ 48.8 µM)
MIC Enterococcus faecalis (ATCC 29212) [1, 10]: >64 µg/mL
MIC Enterococcus faecalis (GC 2242) [1, 11]: >64 µg/mL
MIC Enterococcus faecium (GC 2243) [1, 12]: >64 µg/mL
MIC Enterococcus faecalis (GC 2691) [1, 13]: >64 µg/mL
MIC Enterococcus faecalis (GC 3059) [1, 14]: >64 µg/mL
MIC Enterococcus faecalis (GC 4552) [1, 15]: >64 µg/mL
MIC Enterococcus faecalis (GC 4553) [1, 16]: >64 µg/mL
MIC Enterococcus faecalis (GC 4554) [1, 17]: >64 µg/mL
MIC Enterococcus faecium (GC 4556) [1, 18]: >64 µg/mL
MIC Enterococcus faecium (GC 4557) [1, 19]: 64 µg/mL (≈ 48.8 µM)
MIC Enterococcus avium (GC 4558) [1, 20]: 64 µg/mL (≈ 48.8 µM)
MIC Enterococcus faecalis (GC 6189) [1, 21]: >64 µg/mL
MIC Escherichia coli (GC 4559) [2]: >64 µg/mL
MIC Escherichia coli (GC 4560) [2]: >64 µg/mL
MIC Coagulase Negative Staphylococcus (GC 4547) [3]: >64 µg/mL
MIC Coagulase Negative Staphylococcus (GC 4547) ([3]; broth dilution): >64 µg/mL
MIC Coagulase Negative Staphylococcus (GC 4548) [3]: >64 µg/mL
MIC Coagulase Negative Staphylococcus (GC 4548) ([3]; broth dilution): >64 µg/mL
MIC Coagulase Negative Staphylococcus (GC 4549) [3]: >64 µg/mL
MIC Coagulase Negative Staphylococcus (GC 4549) ([3]; broth dilution): >64 µg/mL
MIC Coagulase Negative Staphylococcus (GC 4551) [3]: >64 µg/mL
MIC Coagulase Negative Staphylococcus (GC 4551) ([3]; broth dilution): >64 µg/mL
MIC Coagulase Negative Staphylococcus (GC 6257) [3]: >64 µg/mL
MIC Coagulase Negative Staphylococcus (GC 6257) ([3]; broth dilution): >64 µg/mL
MIC Staphylococcus aureus (ATCC 29213) [3, 22]: >64 µg/mL
MIC Staphylococcus aureus (ATCC 29213) ([3]; Staphylococcus aureus (ATCC 29213), broth dilution): >64 µg/mL
MIC Staphylococcus aureus (GC 1131) [3, 23]: >64 µg/mL
MIC Staphylococcus aureus (GC 1131) ([3]; Staphylococcus aureus (GC 1131), broth dilution): >64 µg/mL
MIC Staphylococcus aureus (GC 3051) [3, 24]: >64 µg/mL
MIC Staphylococcus aureus (GC 3051) ([3]; Staphylococcus aureus (GC 3051), broth dilution): >64 µg/mL
MIC Staphylococcus aureus (GC 3053) [3, 25]: >64 µg/mL
MIC Staphylococcus aureus (GC 3053) ([3]; Staphylococcus aureus (GC 3053), broth dilution): >64 µg/mL
MIC Staphylococcus aureus (GC 4541) [3, 26]: >64 µg/mL
MIC Staphylococcus aureus (GC 4541) ([3]; Staphylococcus aureus (GC 4541), broth dilution): >64 µg/mL
MIC Staphylococcus aureus (GC 4542) [3, 27]: >64 µg/mL
MIC Staphylococcus aureus (GC 4542) ([3]; Staphylococcus aureus (GC 4542), broth dilution): >64 µg/mL
MIC Staphylococcus aureus (GC 4544) [3, 28]: >64 µg/mL
MIC Staphylococcus aureus (GC 4544) ([3]; Staphylococcus aureus (GC 4544), broth dilution): >64 µg/mL
MIC Staphylococcus aureus (GC 4545) [3, 29]: >64 µg/mL
MIC Staphylococcus aureus (GC 4545) ([3]; Staphylococcus aureus (GC 4545), broth dilution): >64 µg/mL
MIC Staphylococcus aureus-SMITH (GC 4543) [3]: >64 µg/mL
MIC Staphylococcus aureus-SMITH (GC 4543) ([3]; broth dilution): >64 µg/mL
MIC Staphylococcus haemolyticus (GC 4546) [3]: >64 µg/mL
MIC Staphylococcus haemolyticus (GC 4546) ([3]; broth dilution): >64 µg/mL
MIC Streptococcus pneumoniae (ATCC 6301) [4, 30]: 64 µg/mL (≈ 48.8 µM)
MIC Streptococcus pneumoniae (GC 1894) ([4]; broth dilution, strain GC 1894): 64 µg/mL (≈ 48.8 µM)
MIC Streptococcus pyogenes (GC 4563) ([4]; broth dilution, strain GC 4563): >64 µg/mL
MIC Streptococcus agalactiae (GC 4564) ([4]; broth dilution, strain GC 4564): >64 µg/mL
MIC Streptococcus pneumoniae (GC 4565) ([4]; broth dilution, strain GC 4565): 64 µg/mL (≈ 48.8 µM)
MIC Escherichia coli (ATCC 25922) [5]: >64 µg/mL

α-O-[(Benzylamino)carbonyl]-cyclo[glycyl-β-methylphenylalanyl-O-(4-O-hexopyranosylhexopyranosyl)tyrosyl-3(2-iminoimidazolidin-4-yl)seryl-3-(3-hexopyranosyl-2-iminoimidazolidin-4-yl)serylseryl] [Example 257]
MIC Enterococcus avium (GC 4558) ([1]; Enterococcus avium (GC 4558)): 0.5 µg/mL
MIC Enterococcus faecalis (ATCC 29212) [1, 6]: 0.5 µg/mL
MIC Enterococcus faecalis (GC 2242) ([1]; Enterococcus faecalis (GC 2242), 18 hours at 35° C.): 0.5 µg/mL
MIC Enterococcus faecalis (GC 2691) ([1]; Enterococcus faecalis (GC 2691), 18 hours at 35° C.): 0.5 µg/mL
MIC Enterococcus faecalis (GC 3059) ([1]; Enterococcus faecalis (GC 3059), 18 hours at 35° C.): 0.5 µg/mL
MIC Enterococcus faecalis (GC 4552) ([1]; Enterococcus faecalis (GC 4552), 18 hours at 35° C.): >0.5 µg/mL
MIC Enterococcus faecalis (GC 4553) [1, 7]: 0.5 µg/mL
MIC Enterococcus faecalis (GC 4554) [1, 8]: >0.5 µg/mL
MIC Enterococcus faecalis (GC 6189) [1, 9]: 0.5 µg/mL
MIC Enterococcus faecium (GC 2243) ([1]; Enterococcus faecium (GC 2243)): 16 µg/mL
MIC Enterococcus faecium (GC 4556) ([1]; Enterococcus faecium (GC 4556)): 16 µg/mL
MIC Enterococcus faecium (GC 4557) ([1]; Enterococcus faecium (GC 4557)): 2 µg/mL
MIC Enterococcus faecalis (ATCC 29212) [1, 10]: 0.5 µg/mL
MIC Enterococcus faecalis (GC 2242) [1, 11]: 0.5 µg/mL
MIC Enterococcus faecium (GC 2243) [1, 12]: 16 µg/mL
MIC Enterococcus faecalis (GC 2691) [1, 13]: 0.5 µg/mL
MIC Enterococcus faecalis (GC 3059) [1, 14]: 0.5 µg/mL
MIC Enterococcus faecalis (GC 4552) [1, 15]: >0.5 µg/mL
MIC Enterococcus faecalis (GC 4553) [1, 16]: 0.5 µg/mL
MIC Enterococcus faecalis (GC 4554) [1, 17]: >0.5 µg/mL
MIC Enterococcus faecium (GC 4556) [1, 18]: 16 µg/mL
MIC Enterococcus faecium (GC 4557) [1, 19]: 2 µg/mL
MIC Enterococcus avium (GC 4558) [1, 20]: 0.5 µg/mL
MIC Enterococcus faecalis (GC 6189) [1, 21]: 0.5 µg/mL
MIC Escherichia coli (GC 4559) [2]: >0.5 µg/mL
MIC Escherichia coli (GC 4560) [2]: 0.5 µg/mL
MIC Coagulase Negative Staphylococcus (GC 4547) [3]: 2 µg/mL
MIC Coagulase Negative Staphylococcus (GC 4548) [3]: 2 µg/mL
MIC Coagulase Negative Staphylococcus (GC 4549) [3]: 2 µg/mL
MIC Coagulase Negative Staphylococcus (GC 4551) [3]: 8 µg/mL
MIC Coagulase Negative Staphylococcus (GC 6257) [3]: 1 µg/mL
MIC Staphylococcus aureus (ATCC 29213) [3, 22]: 0.5 µg/mL
MIC Staphylococcus aureus (GC 1131) [3, 23]: 0.5 µg/mL
MIC Staphylococcus aureus (GC 3051) [3, 24]: 0.5 µg/mL
MIC Staphylococcus aureus (GC 3053) [3, 25]: 0.5 µg/mL
MIC Staphylococcus aureus (GC 4541) [3, 26]: 0.5 µg/mL
MIC Staphylococcus aureus (GC 4542) [3, 27]: 0.5 µg/mL
MIC Staphylococcus aureus (GC 4544) [3, 28]: 0.5 µg/mL
MIC Staphylococcus aureus (GC 4545) [3, 29]: 0.5 µg/mL
MIC Staphylococcus aureus-SMITH (GC 4543) [3]: 0.5 µg/mL
MIC Staphylococcus haemolyticus (GC 4546) [3]: 2 µg/mL
MIC Staphylococcus aureus (ATCC 29213) ([3]; broth dilution, strain ATCC 29213): 0.5 µg/mL
MIC Staphylococcus aureus (GC 1131) ([3]; broth dilution, strain GC 1131): 0.5 µg/mL
MIC Staphylococcus aureus (GC 3051) ([3]; broth dilution, strain GC 3051): 0.5 µg/mL
MIC Staphylococcus aureus (GC 3053) ([3]; broth dilution, strain GC 3053): 0.5 µg/mL
MIC Staphylococcus aureus (GC 4541) ([3]; broth dilution, strain GC 4541): 0.5 µg/mL
MIC Staphylococcus aureus (GC 4542) ([3]; broth dilution, strain GC 4542): 0.5 µg/mL
MIC Staphylococcus aureus (GC 4544) ([3]; broth dilution, strain GC 4544): 0.5 µg/mL
MIC Staphylococcus aureus (GC 4545) ([3]; broth dilution, strain GC 4545): 0.5 µg/mL
MIC Streptococcus agalactiae (GC 4564) ([4]; Streptococcus agalactiae (GC 4564)): 2 µg/mL
MIC Streptococcus pneumoniae (ATCC 6301) ([4]; Streptococcus pneumoniae (ATCC 6301)): 0.25 µg/mL
MIC Streptococcus pneumoniae (GC 1894) ([4]; Streptococcus pneumoniae (GC 1894)): 0.25 µg/mL
MIC Streptococcus pneumoniae (GC 4565) ([4]; Streptococcus pneumoniae (GC 4565)): 1 µg/mL
MIC Streptococcus pyogenes (GC 4563) ([4]; Streptococcus pyogenes (GC 4563)): 0.12 µg/mL
MIC Streptococcus pneumoniae (ATCC 6301) [4, 30]: 0.25 µg/mL
MIC Streptococcus pneumoniae (GC 1894) ([4]; broth dilution, strain GC 1894): 0.25 µg/mL
MIC Streptococcus pyogenes (GC 4563) ([4]; broth dilution, strain GC 4563): 0.12 µg/mL
MIC Streptococcus agalactiae (GC 4564) ([4]; broth dilution, strain GC 4564): 2 µg/mL
MIC Streptococcus pneumoniae (GC 4565) ([4]; broth dilution, strain GC 4565): 1 µg/mL
MIC Escherichia coli (ATCC 25922) [5]: >0.5 µg/mL
